Structures can show the parent of a compound that is named as a salt.
Legend:
Type in all cases: cell-based
human KV7.1 = human KV7.1 (Homo sapiens, UniProt P51787); assay: KV7.1 86Rb+ efflux HTS; conditions: for inhibition at 10 µM: CHO, read-out: Average percent inhibition at 10 μM (KCNQ1); for Average percent inhibition at 10 μM (KCNQ1): n=2, CHO cells, 86Rb+ efflux, normalized to 10 μM chromanol 293B control
Nav1.8 [1] = target: T1, Nav1.8 (Homo sapiens, UniProt Q9Y5Y9); assay: Nav1.8 FLIPR HTS; conditions: HEK293, read-out: Average percent inhibition at 10 μM (Nav1.8)
Nav1.8 [2] = target: T1, Nav1.8; assay: Nav1.8 automated patch clamp

Chain of human KV7.1 (P51787 whole entry): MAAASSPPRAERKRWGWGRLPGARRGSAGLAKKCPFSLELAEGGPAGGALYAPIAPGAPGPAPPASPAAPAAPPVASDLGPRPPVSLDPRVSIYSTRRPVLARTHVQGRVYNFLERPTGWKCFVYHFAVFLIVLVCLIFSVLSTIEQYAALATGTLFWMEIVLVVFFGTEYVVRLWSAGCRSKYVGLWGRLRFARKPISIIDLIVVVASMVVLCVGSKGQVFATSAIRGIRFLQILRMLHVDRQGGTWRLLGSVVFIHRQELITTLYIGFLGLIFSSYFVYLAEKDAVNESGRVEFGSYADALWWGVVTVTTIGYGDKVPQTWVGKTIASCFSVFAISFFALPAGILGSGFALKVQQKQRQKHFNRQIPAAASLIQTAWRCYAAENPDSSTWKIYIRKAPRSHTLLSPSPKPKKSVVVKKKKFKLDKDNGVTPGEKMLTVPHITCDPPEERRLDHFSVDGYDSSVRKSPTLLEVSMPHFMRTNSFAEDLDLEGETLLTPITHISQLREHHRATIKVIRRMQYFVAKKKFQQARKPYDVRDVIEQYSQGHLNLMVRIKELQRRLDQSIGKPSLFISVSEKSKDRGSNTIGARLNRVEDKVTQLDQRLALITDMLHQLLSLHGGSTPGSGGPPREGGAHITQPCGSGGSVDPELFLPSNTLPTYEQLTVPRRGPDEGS
T1 sequence (Q9Y5Y9 whole entry): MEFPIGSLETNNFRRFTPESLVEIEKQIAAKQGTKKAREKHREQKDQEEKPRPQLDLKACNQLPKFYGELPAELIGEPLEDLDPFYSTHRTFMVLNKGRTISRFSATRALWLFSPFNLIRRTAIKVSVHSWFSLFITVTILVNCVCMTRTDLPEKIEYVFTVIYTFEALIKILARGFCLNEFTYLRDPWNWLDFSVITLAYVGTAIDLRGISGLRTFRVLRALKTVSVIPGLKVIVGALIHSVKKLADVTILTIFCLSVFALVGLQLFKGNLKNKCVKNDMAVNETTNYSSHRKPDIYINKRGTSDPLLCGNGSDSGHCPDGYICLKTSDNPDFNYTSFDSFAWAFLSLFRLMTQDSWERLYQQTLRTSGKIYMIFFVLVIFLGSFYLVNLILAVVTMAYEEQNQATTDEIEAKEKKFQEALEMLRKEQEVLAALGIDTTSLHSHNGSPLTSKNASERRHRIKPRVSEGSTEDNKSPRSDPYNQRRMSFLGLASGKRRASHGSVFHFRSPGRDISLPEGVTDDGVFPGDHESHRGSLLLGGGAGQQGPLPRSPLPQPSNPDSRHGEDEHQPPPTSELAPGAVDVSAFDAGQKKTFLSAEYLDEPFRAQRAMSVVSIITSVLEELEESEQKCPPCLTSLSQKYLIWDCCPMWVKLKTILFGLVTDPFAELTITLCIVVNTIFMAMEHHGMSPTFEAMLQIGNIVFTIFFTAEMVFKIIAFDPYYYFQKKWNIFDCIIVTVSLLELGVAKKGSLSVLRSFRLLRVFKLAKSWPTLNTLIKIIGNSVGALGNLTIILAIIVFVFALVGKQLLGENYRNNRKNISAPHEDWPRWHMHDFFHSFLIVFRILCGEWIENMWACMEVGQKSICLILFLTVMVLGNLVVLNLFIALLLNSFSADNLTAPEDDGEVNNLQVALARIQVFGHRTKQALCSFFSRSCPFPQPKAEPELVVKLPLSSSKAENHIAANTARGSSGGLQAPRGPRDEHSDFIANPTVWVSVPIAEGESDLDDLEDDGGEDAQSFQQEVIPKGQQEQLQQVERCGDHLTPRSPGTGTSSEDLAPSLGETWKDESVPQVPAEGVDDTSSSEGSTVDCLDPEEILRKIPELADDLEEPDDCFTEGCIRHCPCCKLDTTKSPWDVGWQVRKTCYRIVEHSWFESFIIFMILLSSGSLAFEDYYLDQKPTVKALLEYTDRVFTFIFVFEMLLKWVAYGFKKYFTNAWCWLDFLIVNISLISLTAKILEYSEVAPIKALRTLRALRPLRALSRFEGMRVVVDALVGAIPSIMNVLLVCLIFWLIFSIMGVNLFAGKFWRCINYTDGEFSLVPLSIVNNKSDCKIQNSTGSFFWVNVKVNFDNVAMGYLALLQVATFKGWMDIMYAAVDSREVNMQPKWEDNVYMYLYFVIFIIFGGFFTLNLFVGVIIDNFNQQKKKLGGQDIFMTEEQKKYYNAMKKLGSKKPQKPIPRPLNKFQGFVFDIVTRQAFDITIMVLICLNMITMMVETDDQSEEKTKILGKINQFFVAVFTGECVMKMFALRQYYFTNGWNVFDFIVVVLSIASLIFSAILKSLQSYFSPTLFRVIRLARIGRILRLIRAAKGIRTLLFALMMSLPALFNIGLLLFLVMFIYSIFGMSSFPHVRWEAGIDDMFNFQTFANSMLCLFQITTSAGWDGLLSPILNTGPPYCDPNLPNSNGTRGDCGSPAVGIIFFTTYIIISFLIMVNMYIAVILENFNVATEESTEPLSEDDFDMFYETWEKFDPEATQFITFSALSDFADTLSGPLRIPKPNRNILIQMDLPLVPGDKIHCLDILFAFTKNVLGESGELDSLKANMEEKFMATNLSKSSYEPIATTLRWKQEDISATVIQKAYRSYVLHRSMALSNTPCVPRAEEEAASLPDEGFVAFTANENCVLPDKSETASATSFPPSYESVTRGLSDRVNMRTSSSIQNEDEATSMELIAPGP

Row | SMILES | inhibition at 10 µM (human KV7.1) | other results
1 | C[C@H](CCC(=O)O)[C@H]1CC[C@H]2[C@@H]3CC[C@@H]4C[C@H](O)CC[C@]4(C)[C@H]3CC[C@]12C [Lithocholic acid] | 80.8% | 
2 | O=C1Nc2ccc(Cl)cc2[C@@](C#CC2CC2)(C(F)(F)F)O1 [Efavirenz] | 80.3% | 
3 | C#C[C@]1(OC(C)=O)CC[C@H]2[C@@H]3CCC4=C[C@@H](OC(C)=O)CC[C@@H]4[C@H]3CC[C@@]21C [Ethynodiol diacetate] | 88% | 
4 | COc1ccc(Cc2nccc3cc(OC)c(OC)cc23)cc1OC [Papaverine hydrochloride] | 45.6% | 
5 | C[C@]12CC[C@@H]3c4ccc(O)cc4CC[C@H]3[C@@H]1CC[C@@H]2O [Estradiol-17 beta] |  | Average percent inhibition at 10 μM (KCNQ1) (human KV7.1): 56.3%
6 | CCOC(=O)[C@H](CCc1ccccc1)N[C@H]1CCc2ccccc2N(CC(=O)O)C1=O [Benazepril hydrochloride] | 44.8% | 
7 | C#C[C@]1(O)CC[C@H]2[C@@H]3[C@H](C)CC4=C(CCC(=O)C4)[C@H]3CC[C@@]21C [Tibolone] | 87.6% | 
8 | CCOC(=O)C1=C(C)NC(C)=C(C(=O)OC)C1c1cccc([N+](=O)[O-])c1 (centres unmarked) [Nitrendipine] | 46.1% | 
9 | COC(=O)C1=C(C)NC(C)=C(C(=O)OCCN(C)Cc2ccccc2)C1c1cccc([N+](=O)[O-])c1 (centres unmarked) [Nicardipine hydrochloride] | 50.7% | inhibition at 10 µM (Nav1.8 [1]): 123%; IC50 (Nav1.8 [2]): 0.6 µM
10 | CCc1oc2ccccc2c1C(=O)c1cc(Br)c(O)c(Br)c1 [Benzbromarone] | 58.1% | 
11 | COC(=O)C1=C(C)NC(C)=C(C(=O)OC2CCCN(Cc3ccccc3)C2)C1c1cccc([N+](=O)[O-])c1 (centres unmarked) [Benidipine hydrochloride] | 51.1% | inhibition at 10 µM (Nav1.8 [1]): 113%; IC50 (Nav1.8 [2]): 4.4 µM
12 | Oc1cc(Cl)ccc1Oc1ccc(Cl)cc1Cl [Triclosan] | 74% | inhibition at 10 µM (Nav1.8 [1]): 87.8%
13 | C[C@]12CC[C@H]3C(=CCc4cc(O)ccc43)[C@@H]1CCC2=O [Equilin] | 64.6% | 
14 | C[C@]12Cc3c[nH]nc3C[C@@H]1CC[C@@H]1[C@@H]2CC[C@@]2(C)[C@H]1CC[C@]2(C)O [Stanozolol] | 43.6% | 
15 | CC(C)OC(=O)CCC/C=C\C[C@@H]1[C@@H](CC[C@@H](O)CCc2ccccc2)[C@H](O)C[C@@H]1O [Latanoprost] | 63.7% | 
16 | C#C[C@]1(O)CC[C@H]2[C@@H]3CCc4cc(O)ccc4[C@H]3CC[C@@]21C [Ethinylestradiol] | 75.8% | 
17 | CN1CCCN(C(c2ccccc2)c2ccc(Cl)cc2)CC1.Cl.Cl (centres unmarked) [Homochlorcyclizine dihydrochloride] |  | Average percent inhibition at 10 μM (KCNQ1) (human KV7.1): 43.5%
18 | COC(=O)C1=C(C)NC(C)=C(C(=O)OCC(C)C)C1c1ccccc1[N+](=O)[O-] (centres unmarked) [Nisoldipine] | 48% | 
19 | Clc1ccc(COC(Cn2ccnc2)c2ccc(Cl)cc2Cl)c(Cl)c1 (centres unmarked) [Miconazole] | 79.8% | 
20 | CC(=O)O[C@H]1CC[C@@]2(C)C(=CC[C@@H]3[C@@H]2CC[C@]2(C)C(=O)CC[C@@H]32)C1 [Dehydroisoandosterone 3-acetate] |  | Average percent inhibition at 10 μM (KCNQ1) (human KV7.1): 52.9%
21 | CC(C)c1c(CN(C)C(C)Cc2ccccc2)n(C)n(-c2ccccc2)c1=O (centres unmarked) [Famprofazone] | 50.7% | 
22 | CC[C@H](c1ccc(O)cc1)[C@@H](CC)c1ccc(O)cc1 [Hexestrol] | 82% | inhibition at 10 µM (Nav1.8 [1]): 91.6%
23 | Clc1ccccc1C(c1ccccc1)(c1ccccc1)n1ccnc1 [Clotrimazole] | 46.3% | 
24 | CCSc1ccc2c(c1)N(CCCN1CCN(C)CC1)c1ccccc1S2.O=C(O)CC(O)C(=O)O.O=C(O)CC(O)C(=O)O [Thiethylperazine dimalate] |  | Average percent inhibition at 10 μM (KCNQ1) (human KV7.1): 56.9%
25 | CC/C(=C(/CC)c1ccc(O)cc1)c1ccc(O)cc1 [Diethylstilbestrol] | 90.2% | inhibition at 10 µM (Nav1.8 [1]): 99.5%
26 | Clc1ccc(COC(Cn2ccnc2)c2ccc(Cl)cc2Cl)cc1 (centres unmarked) [Econazole nitrate] | 85.6% | 
27 | COc1cccc(N(C)C(=S)Oc2ccc3c(c2)CCCC3)n1 [Liranaftate] | 62.8% | 

Row | SMILES | inhibition at 10 µM (human KV7.1) | other results
28 | CC(C)OC(=O)C(C)(C)Oc1ccc(C(=O)c2ccc(Cl)cc2)cc1 [Fenofibrate] | 64% | 
29 | CC1(C)O[C@@H]2[C@@H](CO[C@@]3(COS(N)(=O)=O)OC(C)(C)O[C@@H]23)O1 [Topiramate] | 44.3% | 
30 | COc1ccc(C(=O)c2ccccc2)c(O)c1 [Oxybenzone] | 57.4% | 
31 | Clc1ccc(C(c2ccccc2Cl)C(Cl)Cl)cc1 (centres unmarked) [Mitotane] | 49.5% | 
32 | COC(=O)C1=C(C#N)NC(C)=C(C(=O)OC(C)C)C1c1cccc([N+](=O)[O-])c1 (centres unmarked) [Nilvadipine] |  | inhibition at 10 µM (Nav1.8 [1]): 87.9%; IC50 (Nav1.8 [2]): 0.6 µM
33 | CCOc1ccc(Cc2nccc3cc(OCC)c(OCC)cc23)cc1OCC [Ethaverine hydrochloride] | 86.9% | 
34 | C/C=C(/C(=C/C)c1ccc(O)cc1)c1ccc(O)cc1 [Dienestrol] | 61.3% | 
35 | Cc1cccc(N(C)C(=S)Oc2ccc3ccccc3c2)c1 [Tolnaftate] | 69.4% | 
36 | Clc1ccc(C(Cn2ccnc2)OCc2ccsc2Cl)c(Cl)c1 (centres unmarked) [Tioconazole] | 53.5% | 
37 | Clc1ccc(C(Cn2ccnc2)OCc2c(Cl)cccc2Cl)c(Cl)c1 (centres unmarked) [Isoconazole] | 61.2% | 
38 | CS(=O)(=O)Nc1ccc([N+](=O)[O-])cc1Oc1ccccc1 [Nimesulide] | 47.9% | 
39 | COCCOC(=O)C1=C(C)NC(C)=C(C(=O)OC(C)C)C1c1cccc([N+](=O)[O-])c1 (centres unmarked) [Nimodipine] |  | inhibition at 10 µM (Nav1.8 [1]): 96.1%; IC50 (Nav1.8 [2]): 1.2 µM
40 | O=C(c1ccc(OCCN2CCCCC2)cc1)c1c(-c2ccc(O)cc2)sc2cc(O)ccc12 [Raloxifene hydrochloride] | 43.3% | inhibition at 10 µM (Nav1.8 [1]): 88.4%
41 | CCN1CCN(C(=O)N[C@@H](C(=O)N[C@@H]2C(=O)N3[C@@H]2SC(C)(C)[C@@H]3C(=O)O)c2ccccc2)C(=O)C1=O [Piperacillin sodium salt] | 43.5% | 
42 | CCOC1O[C@H]([C@@H](COCc2ccccc2)OCc2ccccc2)[C@H](OCc2ccccc2)[C@H]1O (some centres unmarked) [Tribenoside] | 48.8% | inhibition at 10 µM (Nav1.8 [1]): 86.2%
43 | CN1CCN(C(c2ccccc2)c2ccccc2)CC1.Cl [Cyclizine hydrochloride] |  | Average percent inhibition at 10 μM (KCNQ1) (human KV7.1): 45.9%
44 | CSc1nc2cc(Cl)c(Oc3cccc(Cl)c3Cl)cc2[nH]1 [Triclabendazole] | 76% | 
45 | O=C(OCCOCCO)c1ccccc1Nc1cccc(C(F)(F)F)c1 [Etofenamate] | 51.8% | 
46 | c1ccc2c(c1)Nc1ccccc1S2 [Phenothiazine] | 59.8% | 
47 | Cc1c(C)c2c(c(C)c1O)CCC(C)(COc1ccc(CC3SC(=O)NC3=O)cc1)O2 (centres unmarked) [Troglitazone] | 73% | 
48 | CC(=O)SCC(Cc1ccccc1)C(=O)NCC(=O)OCc1ccccc1 (centres unmarked) [Racecadotril] | 46.4% | inhibition at 10 µM (Nav1.8 [1]): 94.8%
49 | Clc1ccc(C(Cn2ccnc2)OCc2csc3c(Cl)cccc23)c(Cl)c1 (centres unmarked) [Sertaconazole nitrate] | 58.6% | 
50 | NS(=O)(=O)c1cc2c(cc1Cl)NC(CC1CCCC1)NS2(=O)=O (centres unmarked) [Cyclopenthiazide] | 68.3% | 
51 | Fc1ccc([C@@H]2CCNC[C@H]2COc2ccc3c(c2)OCO3)cc1 [Paroxetine Hydrochloride] | 59.9% | 
52 | COC1=C(OC)C(=O)C(CCCCCCCCCCO)=C(C)C1=O [Idebenone] | 59% | 
53 | Clc1ccc(CCC(Cn2ccnc2)Sc2c(Cl)cccc2Cl)cc1 (centres unmarked) [Butoconazole nitrate] | 67% | 
